Data as given in patent US5428168A, “Lactol PAF antagonists” (British Biotech Pharmaceuticals Limited, priority 1990, dated 1995).

Tests used:
[1] = system: PAF-induced bronchoconstriction in the guinea pig; experiment: Reversal of PAF-induced bronchoconstriction in anaesthetised guinea-pigs (modified Konzett-Rossler); assay type: in vivo, guinea-pig (male Dunkin-Hartley); settings: Cavia porcellus, iv, PAF 40 ng/kg/min i.v., read-out: ED50 (dose resulting in 50% reversal of PAF-induced bronchoconstriction)
Procedure: The inhibition of PAF induced bronchoconstriction was measured in anaesthetised artificially ventilated guinea-pigs (450-500 g) using a modified version of the Konzett-Rossler technique (Konzett M and Rossler R, Naunym-Schmiedeb. Arch. Exp. Pathol. Pharmakol., 1940, 197, 71). Male Dunkin-Hartley guinea-pigs were anaesthetised with urethane, 1.6 g·kg^-1. Through a midline neck incision, the trachea was cannulated and the animal ventilated with a constant tidal volume set between 5 and 15 ml, to give a tracheal inflation pressure of 15 mmHg at a rate of 40 per minute. A carotid artery was cannulated for the measurement of blood pressure and heart rate and both jugular veins were cannulated, one for the infusion of PAF and the other for the administration of test compounds. PAF, 40 ng·kg^-1 ·min^-1, was infused i.v. to produced a 100% increase in tracheal inflation pressure, and bronchoconstrictor effects were determined.

[2] = system: PAF-induced hypotension in the rat; experiment: Reversal of PAF-induced hypotension in anaesthetised rats; assay type: in vivo, rat (male Sprague-Dawley); settings: iv, i.v. bolus, PAF 100 ng/kg/min i.v., straight line interpolation, read-out: ED50 (dose to cause 50% reversal of the hypotensive PAF response)
Procedure: Male Sprague-Dawley rats (300-400 g) were anaesthetised with a mixture of sodium pentobarbitone, 22.5 mg·kg^-1 and thiopental 62.5 mg·kg^-1. Through a midline incision in the neck, the trachea was cannulated and the animals breathed spontaneously. A carotid artery was cannulated for the measurement of blood pressure and this signal was used to trigger a rate meter to measure heart rate. Both jugular veins were cannulated: one for the infusion of PAF and the other for the bolus administration of test compounds.
PAF, 100 ng·kg^-1 .min^-1 was infused i.v. until a sustained fall in mean blood pressure of 50 mmHg was achieved. […] The peak of this reversal was measured and the dose to cause a 50% reversal of the hypotensive PAF response (ED50) calculated by straight line interpolation and the results are presented in Table 2.

[3] = system: endotoxin induced hypotension in the rat; experiment: Reversal of endotoxin induced hypotension in anaesthetised rats; assay type: in vivo; settings: iv, i.v. bolus, E. coli endotoxin 0111:B4, straight line interpolation, read-out: ED50 (dose resulting in 50% reversal of endotoxin induced hypotension)
Procedure: Rats were anaesthetised with a mixture of sodium pentobarbitone, 22.5 mg·kg^-1, and thiopental, 62.5 mg·kg^-1. The animals breathed spontaneously, air enriched with oxygen, and a carotid artery was cannulated for the measurement of blood pressure and heart rate. […] Test compounds were administered i.v. via the other jugular vein as a bolus.

PAF receptor = target: T1, PAF receptor (Homo sapiens, UniProt P25105); experiment: Inhibition of [3H]-PAF receptor binding to human platelet plasma membrane (isotopic labelling and filtration); settings: human platelet membranes, 0.5 nM [3H]-PAF, 0° C., 1 hour
T1 construct: Platelet concentrates were obtained from a hospital blood bank; from tissue; host or cells: human platelets (plasma membrane fraction of lysed platelets from hospital blood bank concentrates)
T1 sequence (P25105 whole entry): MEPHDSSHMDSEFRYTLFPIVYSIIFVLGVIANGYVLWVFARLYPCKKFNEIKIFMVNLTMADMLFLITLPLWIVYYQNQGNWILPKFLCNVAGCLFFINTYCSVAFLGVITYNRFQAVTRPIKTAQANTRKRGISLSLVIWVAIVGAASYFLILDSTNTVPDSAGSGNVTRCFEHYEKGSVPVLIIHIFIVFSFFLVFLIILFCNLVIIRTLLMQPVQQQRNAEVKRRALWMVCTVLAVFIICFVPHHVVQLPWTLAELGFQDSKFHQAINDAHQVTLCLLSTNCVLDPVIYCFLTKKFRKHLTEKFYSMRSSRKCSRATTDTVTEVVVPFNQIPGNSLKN
Procedure: Compounds of general formula I inhibit PAF-induced functions in both the cellular and tissue levels by changing the PAF binding to its specific receptor site. The ability of compounds of general formula I to inhibit the binding of PAF to its specific receptor binding site on human platelet plasma membranes was measured according to the pharmacological example. […] Platelet concentrates were obtained from a hospital blood bank. These platelet concentrates (500-2500 ml.) were centrifuged at 800 rpm for 10 minutes in a SORVALL RC3B centrifuge to remove the red blood cells present. (The word SORVALL is a trade mark.) The supernatant was subsequently centrifuged at 3,000 rpm in a SORVALL RC3B centrifuge to pellet the platelets present. The platelet rich pellets were resuspended in a minimum volume of buffer (150 mM NaCl, 10 mM Tris, 2 mM EDTA, pH 7.5) and layered onto Ficoll-Paque gradients, 9 ml platelet concentrate to 2 ml Ficoll, and centrifuged at 1,900 rpm for 15 minutes in a SORVALL RT6000 centrifuge. This step removes the residual red blood cells and other nonspecific material such as lymphocytes from the preparation. The platelets which form a band between the plasma and the Ficoll were removed, resuspended in the above buffer and centrifuged at 3,000 rpm for 10 minutes in a SORVALL RT6000 centrifuge. The pelleted platelets were resuspended in buffer (10 mM Tris, 5mM MgCl2, 2 mM EDTA, pH 7.0), snap freezed in liquid N2 and allowed to thaw slowly at room temperature in order to lyse the platelets. The latter step was repeated at least 3 times to ensure proper lysis. The lysed platelets were centrifuged at 3,000 rpm for 10 minutes in a SORVALL RT6000 centrifuge and resuspended in buffer. The latter step was repeated twice in order to remove any cytoplasmic proteins which may hydrolyse the […]. The prepared platelet membranes may be stored at -70° C. After thawing the prepared membranes were centrifuged in a SORVALL RT6000 at 3,000 rpm for 10 minutes and resuspended in assay buffer. The assay was conducted by preparing a series of Tris-buffered solutions of the selected antagonist of predetermined concentrations. […] Incubation was initiated by the addition of 100 μg of the isolated membrane fraction to each of the above solutions at 0° C. […] (The word WHATMAN is a trade mark.) The residue in each case was rapidly washed 4 times with 5 ml cold (4° C.) Tris-buffer solution. […] % Inhibition=[(TB-TBA)/SB]x100 where the specific binding SB=TB-NSB […]

COc1ccc([C@H]2CC[C@@H](OCCCc3cccnc3)O2)cc1OC (relative stereo) [Example 1B, cis-O-(3-(3-pyridyl)propyl)-5-(3,4-dimethoxyphenyl)-gamma-butyrolactol ether]
ED50 [1]: 2.1 µg/kg | ED50 [2]: 9 µg/kg | ED50 [3]: 18 µg/kg

COc1ccc([C@H]2CC[C@H](OCCCn3c(C)nc4cnccc43)O2)cc1OC (relative stereo) [Example 30B, O-(3-(1H-2-Methylimidazo[4,5-c]pyridyl)propyl)-5-(3,4-dimethoxyphenyl)-gamma-butyrolactol ether]
IC50 (PAF receptor): 0.007 µM | ED50 [3]: 7 µg/kg

COc1ccc(C2CCC(OCCCn3c(C)nc4cnccc43)O2)cc1OC (centres unmarked) [Example 30, O-(3-(1H-2-Methylimidazo[4,5-c]pyridyl)propyl)-5-(3,4-dimethoxyphenyl)-gamma-butyrolactol ether]
ED50 [1]: 0.4 µg/kg | ED50 [2]: 1 µg/kg | IC50 (PAF receptor): 0.015 µM
